# Values quoted from earlier work as cited in patent US20150177227A1, “CELLULAR AND ANIMAL MODELS FOR SCREENING THERAPEUTIC AGENTS FOR THE TREATMENT OF ALZHEIMER'S DISEASE” (priority 2012, published 2015).
# Columns and labels:
# plaque = details: in vivo
substance,measurement,setting,value
solanezumab: humanized antibody from Eli Lilly & Co. shown to clear plaque,plaque clearance,plaque,clear plaque
same,benefit trend in phase II clinical trials,Alzheimer's disease,neither antibody showed any trend
